# Results taken from the supplement of paper PMC6965134.
# ± gives the standard deviation of the averaged measurements.
# Assay: TIMS collisional cross section (CCS, N2) of the lipid ion; higher = larger ion cross section
# Details: ionization mode: positive, one isomer drawn
Compound,TIMS collisional cross section (sample type: HeLa),TIMS collisional cross section (sample type: Liver),TIMS collisional cross section (sample type: plasma)
CC/C=C\C/C=C\C/C=C\C/C=C\C/C=C\C/C=C\CCC(=O)OC[C@@H](COC(=O)CCCCCCCCCCCCCCCCC)OC(=O)CCCCCCC/C=C\CCCCCCCC [TG 18:0_18:1_22:6] (ion (formula + adduct): [C61H104O6+NH4] 1+),333.1 Å²,333.4 Å²,
CC/C=C\C/C=C\C/C=C\C/C=C\C/C=C\C/C=C\CCC(=O)OC[C@@H](COC(=O)CCC/C=C\C/C=C\C/C=C\C/C=C\CCCCC)OC(=O)CCCCC/C=C\C/C=C\C/C=C\C/C=C\C/C=C\CC [TG 20:4_22:5_22:6] (ion (formula + adduct): [C67H100O6+NH4] 1+),338.1 Å²,,
CCCCC/C=C\C/C=C\C/C=C\C/C=C\CCCC(=O)O[C@H](CO/C=C\CCCCCCCCCCCCCCCC)COP(=O)(O)OCCN [PE P- 18:0@_20:4] (ion (formula + adduct): [C43H78NO7P+H] 1+),281.6 Å²,281.6 Å²,281.6 ± 0.14 Å²
CCCCCCCC/C=C\CCCCCCCCCCCC(=O)OC[C@@H](COC(=O)CCCCCCCCCCCCCCCCC)OC(=O)CCCCCCC/C=C\CCCCCCCC [TG 18:0_18:1_22:1] (ion (formula + adduct): [C61H114O6+NH4] 1+),339.3 Å²,,
CCCCCCCC/C=C\CCCCCCCCCCCCCC(=O)N[C@@H](CO)[C@H](O)/C=C/CCCCCCCCCCCCC [Cer d18:1_24:1@] (ion (formula + adduct): [C42H81NO3+H] 1+),278.2 Å²,283 Å²,280.9 ± 3.8 Å²
CCCCC/C=C\C/C=C\C/C=C\C/C=C\CCCC(=O)O[C@H](COC(=O)CCCCCCC/C=C\CCCCCCCC)COP(=O)([O-])OCC[N+](C)(C)C [PC 18:1_20:4] (ion (formula + adduct): [C46H82NO8P+H] 1+),,,294.3 Å²
CCCCCCCC/C=C\C/C=C\C/C=C\CCCC(=O)O[C@H](COC(=O)CCCCCCCCCCCCCCC)COP(=O)([O-])OCC[N+](C)(C)C [PC 16:0_20:3] (ion (formula + adduct): [C44H82NO8P+H] 1+),,,290.5 Å²
CCCCCC/C=C\CCCCCCCC(=O)OC[C@@H](COC(=O)CCCCCCCCCCCCCCC)OC(=O)CCCCCCCCCCCCCCC [TG 16:0_16:0_16:1] (ion (formula + adduct): [C51H96O6+NH4] 1+),311.7 Å²,,
CCCCC/C=C\C/C=C\CCCCCCCC(=O)OC[C@H](COC(=O)CCCCCCCCC/C=C\CCCCCCCCCC)OC(=O)CCCCCCC/C=C\CCCCCCCCC [TG 18:2_19:1_22:1] (ion (formula + adduct): [C62H112O6+NH4] 1+),,338.2 Å²,
CCCCCCCCCCCCC/C=C/[C@@H](O)[C@H](COP(=O)([O-])OCC[N+](C)(C)C)NC(=O)CCCCCCCCCCCCC [SM d18:1_14:0@] (ion (formula + adduct): [C37H75N2O6P+H] 1+),279.1 Å²,,
CCCCCC/C=C\CCCCCCCC(=O)OC[C@H](COC(=O)CCCCCCCCCCCCCCCCCCCCC)OC(=O)CCCCCCCCCCCCCCCCC [TG 16:1_18:0_22:0] (ion (formula + adduct): [C59H112O6+NH4] 1+),,,335.9 Å²
CC/C=C\C/C=C\C/C=C\C/C=C\C/C=C\C/C=C\CCC(=O)O[C@H](COCCCCCCCCCCCCCCCCCCCC)COP(=O)([O-])OCC[N+](C)(C)C [PC O- 20:0@_22:6] (ion (formula + adduct): [C50H90NO7P+H] 1+),305.7 Å²,,304.9 Å²
CCCCCC/C=C\CCCCCCCC(=O)OC[C@H](COP(=O)(O)OCCN)OC(=O)CCCCCCCCCCCCCCC [PE 16:1@_16:0] (ion (formula + adduct): [C37H72NO8P+H] 1+),,268.7 Å²,
CCCCC/C=C\C/C=C\CCCCCCCC(=O)OC[C@H](COP(=O)([O-])OCC[N+](C)(C)C)OC(=O)CCCCCCCCCCCCCCCCCCCCCCC [PC 18:2@_24:0] (ion (formula + adduct): [C50H96NO8P+H] 1+),,,310.1 Å²
CCCCC/C=C\C/C=C\C/C=C\CCCCCCC(=O)O[C@H](CO/C=C\CCCCCCCCCCCCCCCC)COP(=O)([O-])OCC[N+](C)(C)C [PC P- 18:0@_20:3] (ion (formula + adduct): [C46H86NO7P+H] 1+),,,296.1 Å²
CCCCCCCC/C=C\CCCCCCCCCC(=O)OC[C@@H](COC(=O)CCCCCCCCCCCCCCCC)OC(=O)CCCCCCC/C=C\CCCCCCCC [TG 17:0_18:1_20:1] (ion (formula + adduct): [C58H108O6+NH4] 1+),330.7 Å²,331.2 Å²,332 Å²
CCCCC/C=C\C/C=C\C/C=C\C/C=C\CCCCCC(=O)O[C@@H](CO)COC(=O)CCCCCCC/C=C\CCCCCCCC [DG 18:1_22:4_0:0] (ion (formula + adduct): [C43H74O5+NH4] 1+),,,273 Å²

Compound,TIMS collisional cross section (sample type: HeLa),TIMS collisional cross section (sample type: Liver),TIMS collisional cross section (sample type: plasma)
CCCCC/C=C\CCCCCCCC(=O)OC[C@@H](COC(=O)CCCCCCCCCCC)OC(=O)CCCCCCCCCCC [TG 12:0_12:0_15:1] (ion (formula + adduct): [C42H78O6+NH4] 1+),,280.4 Å²,
CCCCCC/C=C\CCCCCCCC(=O)O[C@@H](COC(=O)CCCCCCC/C=C\CCCCCCCC)COC(=O)CCCCCCCCCCCC [TG 13:0_16:1_18:1] (ion (formula + adduct): [C50H92O6+NH4] 1+),306.8 Å²,,
CCCCC/C=C\C/C=C\CCCCCCCC(=O)OC[C@@H](COC(=O)CCCCCCCCCCCCC)OC(=O)CCCCCCC/C=C\CCCCCCCC [TG 14:0_18:1_18:2] (ion (formula + adduct): [C53H96O6+NH4] 1+),,312.9 Å²,
CCCCC/C=C\C/C=C\C/C=C\CCCCCCC(=O)OC[C@@H](O)COP(=O)([O-])OCC[N+](C)(C)C [LPC 20:3_0:0] (ion (formula + adduct): [C28H52NO7P+H] 1+),,231.55 ± 1.1 Å²,232.43 ± 1.2 Å²
CC/C=C\C/C=C\C/C=C\CCCCCCCC(=O)O[C@@H](CO)COC(=O)CCCCCCC/C=C\C/C=C\CCCCC [DG 18:2_18:3_0:0] (ion (formula + adduct): [C39H66O5+NH4] 1+),,254.2 Å²,
CCCCC/C=C\C/C=C\C/C=C\C/C=C\CCCCCC(=O)OC[C@@H](COC(=O)CCCCCCC/C=C\CCCCCCCC)OC(=O)CCCCCCCCC/C=C\CCCCCCCC [TG 18:1_20:1_22:4] (ion (formula + adduct): [C63H110O6+NH4] 1+),338.9 Å²,,
CCCCCCCC/C=C\CCCCCCCC(=O)O[C@@H](CO)COC(=O)CCCCCCCCCCCCCCCC [DG 17:0_18:1_0:0] (ion (formula + adduct): [C38H72O5+NH4] 1+),265.7 Å²,266 Å²,
CCCCCCCCCCCCCCCCCCOC[C@@H](O)COP(=O)([O-])OCC[N+](C)(C)C [LPC O- 18:0] (ion (formula + adduct): [C26H56NO6P+H] 1+),238.4 Å²,238.2 Å²,
CCCCCCC/C=C\CCCCCCCC(=O)O[C@@H](COC(=O)CCCCCCC/C=C\CCCCCCCC)COC(=O)CCCCCCCCCCCCCC [TG 15:0_17:1_18:1] (ion (formula + adduct): [C53H98O6+NH4] 1+),315.9 Å²,,
CCCCCCCCCCCCCCCC(=O)OC[C@@H](COC(=O)CCCCCCCCCCCC)OC(=O)CCCCCCCCCCCCCCC [TG 13:0_16:0_16:0] (ion (formula + adduct): [C48H92O6+NH4] 1+),305 Å²,,
CC/C=C\C/C=C\C/C=C\C/C=C\CCCCC(=O)O[C@H](COC(=O)CCCCCCCCCCCCC)COP(=O)([O-])OCC[N+](C)(C)C [PC 14:0@_18:4] (ion (formula + adduct): [C40H72NO8P+H] 1+),278.8 Å²,,
CCCCC/C=C\C/C=C\C/C=C\C/C=C\CCCC(=O)O[C@@H](CO)COC(=O)CCCCCCCCCCCCCCCCC [DG 18:0_20:4_0:0] (ion (formula + adduct): [C41H72O5+NH4] 1+),270.8 Å²,270.8 Å²,
CCCCC/C=C\C/C=C\C/C=C\C/C=C\CCCC(=O)OC[C@@H](COC(=O)CCCCCCCCCCCCCCC)OC(=O)CCCCCCC/C=C\CCCCCCCC [TG 16:0_18:1_20:4] (ion (formula + adduct): [C57H100O6+NH4] 1+),324.5 Å²,,324.2 Å²
CCCCCCCC/C=C\CCCCCCCC(=O)OC[C@@H](COC(=O)CCCCCCCCCCCCC)OC(=O)CCCCCCCCCCCCCCCC [TG 14:0_17:0_18:1] (ion (formula + adduct): [C52H98O6+NH4] 1+),,315.3 Å²,
CCCCCCCC/C=C\CCCCCCCCCCCCCC(=O)N[C@@H](COP(=O)([O-])OCC[N+](C)(C)C)[C@H](O)/C=C/CCCCCCCCCCC [SM d16:1_24:1@] (ion (formula + adduct): [C45H89N2O6P+H] 1+),,,299.8 Å²
CCCCCCCCCCCCCCCC(=O)OCC(CO)OC(=O)CCCCCCCCCCCCCCC (stereo unspecified) [DG 16:0_16:0_0:0] (ion (formula + adduct): [C35H68O5+Na] 1+),,,253.8 Å²
